Data published in patent US10538498B2, “1,3,4-oxadiazole sulfonamide derivative compounds as histone deacetylase 6 inhibitor, and the pharmaceutical composition comprising the same” (Chong Kun Dang Pharmaceutical Corp., priority 2015, dated 2020).

How the values were obtained:
[1] = biological target: T1, human recombinant HDAC1 (Homo sapiens, UniProt Q13547); assay: HDAC1 enzyme activity inhibition assay (HDAC Fluorimetric Drug Discovery Kit); assay type: biochemical; conditions: 0.3 μg enzyme, 10 μM substrate, 30° C., 60 minutes
T1 construct: purchased Enzo Life Science BML-SE456
Protocol: In order to examine the HDAC6 selectivity of the compounds of formula I of the present invention by HDAC1 and HDAC6 enzymatic activity inhibition assays, an experiment was performed using a conventional substance as a control.
HDAC enzyme activity was measured using a HDAC Fluorimetric Drug Discovery Kit (BML-AK511, 516, Enzo Life Science). For the HDAC1 enzyme activity test, human recombinant HDAC1 (BML-SE456) was used as an enzyme source, and Fluor de Lys®-“SIRT1 (BNL-KI177) was used as a substrate. A 5-fold dilution of the compound was seeded into a 96-well plate, and then 0.3 μg of the enzyme and 10 μM of the substrate were added to each well of the plate and allowed to react at 30° C. for 60 minutes. Then, Fluor de Lys®-Developer II (BML-KI176) was added thereto and allowed to react for 30 minutes, after which the fluorescence value (Ex 360, Em 460) was measured using a multi-plate reader (Flexstation 3, Molecular Device). The HDAC6 enzyme was tested using human recombinant HDAC6 (382180) (Calbiochem) according to the same protocol as the HDAC1 enzyme activity test method. Based on the resulting values, each IC50 value was calculated using GraphPad Prism4.0 program.

[2] = biological target: T2, human recombinant HDAC6 (Homo sapiens, UniProt Q9UBN7); assay: HDAC6 enzyme activity inhibition assay (HDAC Fluorimetric Drug Discovery Kit); assay type: biochemical; conditions: for HDAC6 selectivity (fold): HDAC1 vs HDAC6; for IC50: same protocol as the HDAC1 enzyme activity test
T2 construct: purchased Calbiochem 382180
T2 sequence (Q9UBN7 1-1215): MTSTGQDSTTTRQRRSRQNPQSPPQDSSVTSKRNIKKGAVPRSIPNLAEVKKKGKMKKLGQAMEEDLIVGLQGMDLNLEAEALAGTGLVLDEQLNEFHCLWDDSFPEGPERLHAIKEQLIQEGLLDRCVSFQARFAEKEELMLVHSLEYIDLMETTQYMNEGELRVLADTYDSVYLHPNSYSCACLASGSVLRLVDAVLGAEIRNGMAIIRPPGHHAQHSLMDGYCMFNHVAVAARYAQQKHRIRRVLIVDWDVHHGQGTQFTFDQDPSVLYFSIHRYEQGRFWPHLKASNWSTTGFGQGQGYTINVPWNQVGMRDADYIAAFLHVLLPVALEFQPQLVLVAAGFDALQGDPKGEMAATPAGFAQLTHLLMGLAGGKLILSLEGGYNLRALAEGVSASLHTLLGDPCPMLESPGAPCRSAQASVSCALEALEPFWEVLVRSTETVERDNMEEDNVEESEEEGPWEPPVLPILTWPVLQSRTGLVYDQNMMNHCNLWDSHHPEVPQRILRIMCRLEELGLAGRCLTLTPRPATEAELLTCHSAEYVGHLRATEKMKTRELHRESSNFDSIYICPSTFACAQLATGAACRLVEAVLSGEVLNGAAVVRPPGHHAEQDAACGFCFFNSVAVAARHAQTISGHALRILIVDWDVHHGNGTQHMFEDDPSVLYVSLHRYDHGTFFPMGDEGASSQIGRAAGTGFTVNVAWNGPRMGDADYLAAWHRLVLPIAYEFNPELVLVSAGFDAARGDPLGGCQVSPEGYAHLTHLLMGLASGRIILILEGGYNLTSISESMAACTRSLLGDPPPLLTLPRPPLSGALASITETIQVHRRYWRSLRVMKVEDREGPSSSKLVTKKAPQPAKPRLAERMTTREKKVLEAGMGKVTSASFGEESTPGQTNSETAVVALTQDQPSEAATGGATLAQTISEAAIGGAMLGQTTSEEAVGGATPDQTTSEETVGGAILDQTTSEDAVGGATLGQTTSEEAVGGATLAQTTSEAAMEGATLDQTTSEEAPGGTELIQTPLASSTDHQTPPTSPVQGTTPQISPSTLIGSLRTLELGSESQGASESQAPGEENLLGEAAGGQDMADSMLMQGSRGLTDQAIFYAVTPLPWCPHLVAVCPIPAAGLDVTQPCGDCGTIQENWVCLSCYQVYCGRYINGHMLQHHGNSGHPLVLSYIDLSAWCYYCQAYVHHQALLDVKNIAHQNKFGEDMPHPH
How it was run: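 Both isoforms are run by an identical fluorimetric protocol: deacetylation of 10 μM Fluor de Lys-SIRT1 substrate by 0.3 μg recombinant enzyme over 60 min at 30° C, in the presence of 5-fold compound dilutions. Signal is developed for 30 min and read at Ex 360/Em 460 to derive IC50.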

T1 sequence (Q13547 whole entry): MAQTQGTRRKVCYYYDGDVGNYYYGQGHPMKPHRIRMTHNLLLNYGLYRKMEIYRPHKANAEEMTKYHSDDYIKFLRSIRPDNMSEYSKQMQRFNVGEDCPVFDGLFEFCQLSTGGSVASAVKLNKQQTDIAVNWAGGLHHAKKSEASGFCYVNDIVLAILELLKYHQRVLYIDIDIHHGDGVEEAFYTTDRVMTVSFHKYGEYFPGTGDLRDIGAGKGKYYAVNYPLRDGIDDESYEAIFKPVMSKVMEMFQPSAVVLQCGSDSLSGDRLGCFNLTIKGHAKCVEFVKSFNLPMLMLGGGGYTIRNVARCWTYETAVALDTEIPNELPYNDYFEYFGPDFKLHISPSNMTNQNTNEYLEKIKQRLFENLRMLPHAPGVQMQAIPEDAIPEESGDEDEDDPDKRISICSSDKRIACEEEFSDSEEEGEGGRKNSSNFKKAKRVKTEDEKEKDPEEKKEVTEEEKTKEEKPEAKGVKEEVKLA

Row | IC50 [1] [nM] | HDAC6 selectivity (fold) [2] [fold] | IC50 [2] [nM] | Compound
1 | 51400 | 404 | 127 | CS(=O)(=O)N(Cc1ccc(-c2nnc(C(F)(F)F)o2)cc1)c1cccnc1 [Compound 11088, N-(pyridin-3-yl)-N-(4-(5-(trifluoromethyl)-1,3,4-oxadiazol-2-yl)benzyl)methanesulfonamide]
2 | 47900 | 957 | 50 | CS(=O)(=O)N(Cc1ccc(-c2nnc(C(F)(F)F)o2)cc1F)c1cccnc1 [Compound 11089, N-(2-fluoro-4-(5-(trifluoromethyl)-1,3,4-oxadiazol-2-yl)benzyl)-N-(pyridin-3-yl)methanesulfonamide]
3 | 34200 | 900 | 38 | CS(=O)(=O)N(Cc1ccc(-c2nnc(C(F)(F)F)o2)cc1)c1ccccc1 [Compound 11167, N-phenyl-N-(4-(5-(trifluoromethyl)-1,3,4-oxadiazol-2-yl)benzyl)methanesulfonamide]
4 | 41100 | 1081 | 38 | CS(=O)(=O)N(Cc1ccc(-c2nnc(C(F)(F)F)o2)cc1F)c1ccccc1 [Compound 11169, N-(2-fluoro-4-(5-(trifluoromethyl)-1,3,4-oxadiazol-2-yl)benzyl)-N-phenylmethanesulfonamide]
5 | 26600 | 1267 | 21 | CS(=O)(=O)N(Cc1ccc(-c2nnc(C(F)(F)F)o2)cn1)c1ccccc1 [Compound 11171, N-phenyl-N-((5-(5-(trifluoromethyl)-1,3,4-oxadiazol-2-yl)pyridin-2-yl)methyl)methanesulfonamide]
6 | 28600 | 43 | 661 | CS(=O)(=O)N(Cc1ccc(-c2nnc(C(F)(F)F)o2)nc1)c1ccccc1 [Compound 11173, N-phenyl-N-((6-(5-(trifluoromethyl)-1,3,4-oxadiazol-2-yl)pyridin-3-yl)methyl)methanesulfonamide]
7 | 18900 | 332 | 57 | Cc1cccc(N(Cc2ccc(-c3nnc(C(F)(F)F)o3)cc2F)S(C)(=O)=O)c1 [Compound 11177, N-(2-fluoro-4-(5-(trifluoromethyl)-1,3,4-oxadiazol-2-yl)benzyl)-N-(m-tolyl)methanesulfonamide]
8 |  | 1365 | 73.3 | O=S(=O)(CCN1CCC(O)CC1)N(Cc1ccc(-c2nnc(C(F)F)o2)cc1)c1ccccc1 [Compound 11822, N-(4-(5-(difluoromethyl)-1,3,4-oxadiazol-2-yl)benzyl)-2-(4-hydroxypiperidin-1-yl)-N-phenylethane-1-sulfonamide]
9 |  | 3147 | 31.8 | O=C(CO)N1CC(N2CCC(S(=O)(=O)N(Cc3ccc(-c4nnc(C(F)F)o4)cc3)c3cccc(Cl)c3)CC2)C1 [Compound 11836, N-(3-chlorophenyl)-N-(4-(5-(difluoromethyl)-1,3,4-oxadiazol-2-yl)benzyl)-1-(1-(2-hydroxyacetyl)azetidin-3-yl)piperidine-4-sulfonamide]
10 |  | 4167 | 24 | Cc1cccc(N(Cc2ccc(-c3nnc(C(F)F)o3)cn2)S(=O)(=O)C2CCN(C3CN(C(C)C)C3)CC2)c1 [Compound 11837, N-((5-(5-(difluoromethyl)-1,3,4-oxadiazol-2-yl)pyridin-2-yl)methyl)-1-(1-isopropylazetidin-3-yl)-N-(m-tolyl)piperidine-4-sulfonamide]
11 |  | 2241 | 44.6 | CC(=O)N1CC(N2CCC(S(=O)(=O)N(Cc3ccc(-c4nnc(C(F)F)o4)cn3)c3cccc(C)c3)CC2)C1 [Compound 11838, 1-(1-acetylazetidin-3-yl)-N-((5-(5-(difluoromethyl)-1,3,4-oxadiazol-2-yl)pyridin-2-yl)methyl)-N-(m-tolyl)piperidine-4-sulfonamide]
12 |  | 2236 | 44.7 | Cc1cccc(N(Cc2ccc(-c3nnc(C(F)F)o3)cn2)S(=O)(=O)C2CCN(C3CN(C(=O)CO)C3)CC2)c1 [Compound 11839, N-((5-(5-(difluoromethyl)-1,3,4-oxadiazol-2-yl)pyridin-2-yl)methyl)-1-(1-(2-hydroxyacetyl)azetidin-3-yl)-N-(m-tolyl)piperidine-4-sulfonamide]
13 |  | 520 | 192 | O=S(=O)(C1CCN(C2CC(F)C2)CC1)N(Cc1ccc(-c2nnc(C(F)F)o2)cc1)c1cccc(Cl)c1 (stereo not drawn) [Compound 11840, N-(3-chlorophenyl)-N-(4-(5-(difluoromethyl)-1,3,4-oxadiazol-2-yl)benzyl)-1-(3-fluorocyclobutyl)piperidine-4-sulfonamide]
14 |  | 2790 | 35.8 | O=S(=O)(C1CCN(C2CC(F)C2)CC1)N(Cc1ccc(-c2nnc(C(F)F)o2)cn1)c1cccc(Cl)c1 (stereo not drawn) [Compound 11841, N-(3-chlorophenyl)-N-((5-(5-(difluoromethyl)-1,3,4-oxadiazol-2-yl)pyridin-2-yl)methyl)-1-(3-fluorocyclobutyl)piperidine-4-sulfonamide]
15 |  | 121 | 826 | O=S(=O)(CCN1CC=C(c2ccc(Cl)cc2)CC1)N(Cc1ccc(-c2nnc(C(F)F)o2)cc1)c1ccccc1 [Compound 11842, 2-(4-(4-chlorophenyl)-3,6-dihydropyridin-1(2H)-yl)-N-(4-(5-(difluoromethyl)-1,3,4-oxadiazol-2-yl)benzyl)-N-phenylethane-1-sulfonamide]
16 |  | 101 | 994 | O=S(=O)(CCN1Cc2cccc3cccc(c23)C1)N(Cc1ccc(-c2nnc(C(F)F)o2)cc1)c1ccccc1 [Compound 11843, 2-(1H-benzo[de]isoquinolin-2(3H)-yl)-N-(4-(5-(difluoromethyl)-1,3,4-oxadiazol-2-yl)benzyl)-N-phenylethane-1-sulfonamide]
17 |  | 172 | 581 | O=S(=O)(CCN1CCN(c2noc3ccccc23)CC1)N(Cc1ccc(-c2nnc(C(F)F)o2)cc1)c1ccccc1 [Compound 11844, 2-(4-(benzo[d]isoxazol-3-yl)piperazin-1-yl)-N-(4-(5-(difluoromethyl)-1,3,4-oxadiazol-2-yl)benzyl)-N-phenylethane-1-sulfonamide]
18 |  | 103 | 973 | COc1ccccc1C1CCN(CCS(=O)(=O)N(Cc2ccc(-c3nnc(C(F)F)o3)cc2)c2ccccc2)CC1 [Compound 11845, N-(4-(5-(difluoromethyl)-1,3,4-oxadiazol-2-yl)benzyl)-2-(4-(2-methoxyphenyl)piperidin-1-yl)-N-phenylethane-1-sulfonamide]
19 |  | 1605 | 62.3 | NC(=O)[C@@H]1C[C@@H](O)CN1CCS(=O)(=O)N(Cc1ccc(-c2nnc(C(F)F)o2)cn1)c1ccccc1 [Compound 11849, (2S,4R)-1-(2-(N-((5-(5-(difluoromethyl)-1,3,4-oxadiazol-2-yl)pyridin-2-yl)methyl)-N-phenylsulfamoyl)ethyl)-4-hydroxypyrrolidine-2-carboxamide]
